Measured values: the supplement of paper PMC10307832

Key:
Test in all cases: relative viability (nuclei count vs DMSO), 5 days (fraction); higher = more cells survive
[1] = compound: C1=CC=C2C(=C1)N=C(S2)C(C#N)C3=NC(=NC=C3)NCCC4=CN=CC=C4 + C[C@]1(O)C[C@@H](c2nc(-c3ccc4ccc(-c5ccccc5)nc4c3)c3c(N)nccn32)C1 [Linsitinib] (partner 1 µM)
How it was run: (§1)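 For relative viability, nuclei counts in treated wells were divided by those in vehicle wells. Lung cancer cell lines had been pin-tool dosed in 1536-well plates the day after seeding and cultured for 5 days, then fixed and stained in one step (final 0.05% Triton X-100, 1% formaldehyde, 1 ug/ml Hoechst) and imaged at 4×. Doses were one drug alone or a fixed anchor-drug dose plus five library-drug doses (not always all listed) in √10 steps, and values are duplicate-plate medians.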

[2] = compound: C1=CC=C2C(=C1)N=C(S2)C(C#N)C3=NC(=NC=C3)NCCC4=CN=CC=C4 + NC(=O)Nc1cc(-c2cccc(F)c2)sc1C(=O)N[C@H]1CCCNC1 [AZD7762] (partner 0.2 µM)
How it was run: as §1

Vandetanib + Alpelisib = compound: COc1cc2/c(=N/c3ccc(Br)cc3F)nc[nH]c2cc1OCC1CCN(C)CC1 [Vandetanib] + Cc1nc(NC(=O)N2CCC[C@H]2C(N)=O)sc1-c1ccnc(C(C)(C)C(F)(F)F)c1 [Alpelisib] (partner 2 µM)
How it was run: as §1

NVP-TAE684 + Dasatinib = compound: COc1cc(N2CCC(N3CCN(C)CC3)CC2)ccc1Nc1ncc(Cl)c(Nc2ccccc2S(=O)(=O)C(C)C)n1 [NVP-TAE684] + Cc1nc(Nc2ncc(C(=O)Nc3c(C)cccc3Cl)s2)cc(N2CCN(CCO)CC2)n1 [Dasatinib] (partner 0.075 µM)
How it was run: as §1

**Q.** For NCI-H1734, which relative viability ([1]; first compound 0.005 µM) is on record?
**A.** 0.779

**Q.** What about the relative viability ([1]; first compound 0.01581 µM) of the same cell line?
**A.** 0.939

**Q.** And the relative viability ([1]; first compound 0.05 µM)?
**A.** 0.881

**Q.** And the relative viability ([1]; first compound 0.1581 µM)?
**A.** 0.946

**Q.** What about the relative viability ([1]; first compound 0.5 µM) of the same cell line?
**A.** 0.797

**Q.** And the relative viability ([2]; first compound 0.005 µM)?
**A.** 0.443

**Q.** What about the relative viability ([2]; first compound 0.01581 µM) of the same cell line?
**A.** 0.658

**Q.** What about the relative viability ([2]; first compound 0.05 µM) of the same cell line?
**A.** 0.615

**Q.** And the relative viability ([2]; first compound 0.1581 µM)?
**A.** 0.566

**Q.** And the relative viability ([2]; first compound 0.5 µM)?
**A.** 0.514

**Q.** What about the relative viability (Vandetanib + Alpelisib; first compound 0.02 µM) of the same cell line?
**A.** 0.673

**Q.** What about the relative viability (Vandetanib + Alpelisib; first compound 0.06325 µM) of the same cell line?
**A.** 0.684

**Q.** And the relative viability (Vandetanib + Alpelisib; first compound 0.2 µM)?
**A.** 0.737

**Q.** And the relative viability (Vandetanib + Alpelisib; first compound 0.6325 µM)?
**A.** 0.756

**Q.** What about the relative viability (Vandetanib + Alpelisib; first compound 2 µM) of the same cell line?
**A.** 0.678

**Q.** What about the relative viability (NVP-TAE684 + Dasatinib; first compound 0.2 µM) of the same cell line?
**A.** 0.47

**Q.** What about the relative viability (NVP-TAE684 + Dasatinib; first compound 0.6325 µM) of the same cell line?
**A.** 0.362

**Q.** What about the relative viability (NVP-TAE684 + Dasatinib; first compound 2 µM) of the same cell line?
**A.** 0.194

**Q.** Which results are given for NCI-H1755?
**A.** relative viability ([1]; first compound 0.005 µM): 0.968; relative viability ([1]; first compound 0.01581 µM): 1.05; relative viability ([1]; first compound 0.05 µM): 0.976; relative viability ([1]; first compound 0.1581 µM): 1.07; relative viability ([1]; first compound 0.5 µM): 0.908; relative viability ([2]; first compound 0.005 µM): 0.458; relative viability ([2]; first compound 0.01581 µM): 0.539; relative viability ([2]; first compound 0.05 µM): 0.506; relative viability ([2]; first compound 0.1581 µM): 0.542; relative viability ([2]; first compound 0.5 µM): 0.43; relative viability (Vandetanib + Alpelisib; first compound 0.02 µM): 0.935; relative viability (Vandetanib + Alpelisib; first compound 0.06325 µM): 0.888; relative viability (Vandetanib + Alpelisib; first compound 0.2 µM): 0.872; relative viability (Vandetanib + Alpelisib; first compound 0.6325 µM): 0.896; relative viability (Vandetanib + Alpelisib; first compound 2 µM): 0.858; relative viability (NVP-TAE684 + Dasatinib; first compound 0.2 µM): 0.333; relative viability (NVP-TAE684 + Dasatinib; first compound 0.6325 µM): 0.276; relative viability (NVP-TAE684 + Dasatinib; first compound 2 µM): 0.0732

**Q.** NCI-H1792 was tested. Which relative viability ([1]; first compound 0.01581 µM) did it give?
**A.** 0.711

**Q.** And the relative viability ([1]; first compound 0.05 µM)?
**A.** 0.537

**Q.** What about the relative viability ([1]; first compound 0.1581 µM) of the same cell line?
**A.** 0.495

**Q.** What about the relative viability ([1]; first compound 0.5 µM) of the same cell line?
**A.** 0.39

**Q.** What about the relative viability ([2]; first compound 0.01581 µM) of the same cell line?
**A.** 0.631

**Q.** And the relative viability ([2]; first compound 0.05 µM)?
**A.** 0.8

**Q.** And the relative viability ([2]; first compound 0.1581 µM)?
**A.** 1.28

**Q.** What about the relative viability ([2]; first compound 0.5 µM) of the same cell line?
**A.** 0.37

**Q.** What about the relative viability (Vandetanib + Alpelisib; first compound 0.02 µM) of the same cell line?
**A.** 0.676

**Q.** And the relative viability (Vandetanib + Alpelisib; first compound 0.06325 µM)?
**A.** 0.672

**Q.** And the relative viability (Vandetanib + Alpelisib; first compound 0.2 µM)?
**A.** 0.694

**Q.** And the relative viability (Vandetanib + Alpelisib; first compound 0.6325 µM)?
**A.** 0.705

**Q.** And the relative viability (Vandetanib + Alpelisib; first compound 2 µM)?
**A.** 0.565

**Q.** What about the relative viability (NVP-TAE684 + Dasatinib; first compound 0.2 µM) of the same cell line?
**A.** 0.623

**Q.** And the relative viability (NVP-TAE684 + Dasatinib; first compound 0.6325 µM)?
**A.** 0.76

**Q.** What about the relative viability (NVP-TAE684 + Dasatinib; first compound 2 µM) of the same cell line?
**A.** 0.25

**Q.** Which relative viability ([1]; first compound 0.005 µM) does the source give for NCI-H1793 here?
**A.** 0.782

**Q.** And the relative viability ([1]; first compound 0.01581 µM)?
**A.** 0.956

**Q.** And the relative viability ([1]; first compound 0.05 µM)?
**A.** 0.886

**Q.** What about the relative viability ([1]; first compound 0.1581 µM) of the same cell line?
**A.** 1.25

**Q.** What about the relative viability ([1]; first compound 0.5 µM) of the same cell line?
**A.** 0.87

**Q.** What about the relative viability ([2]; first compound 0.01581 µM) of the same cell line?
**A.** 0.391

**Q.** And the relative viability ([2]; first compound 0.05 µM)?
**A.** 0.58

**Q.** And the relative viability ([2]; first compound 0.1581 µM)?
**A.** 0.513

**Q.** What about the relative viability ([2]; first compound 0.5 µM) of the same cell line?
**A.** 0.306

**Q.** And the relative viability (Vandetanib + Alpelisib; first compound 0.02 µM)?
**A.** 0.65

**Q.** And the relative viability (Vandetanib + Alpelisib; first compound 0.06325 µM)?
**A.** 0.635

**Q.** What about the relative viability (Vandetanib + Alpelisib; first compound 0.2 µM) of the same cell line?
**A.** 0.623

**Q.** And the relative viability (Vandetanib + Alpelisib; first compound 0.6325 µM)?
**A.** 0.756

**Q.** What about the relative viability (Vandetanib + Alpelisib; first compound 2 µM) of the same cell line?
**A.** 0.512

**Q.** And the relative viability (NVP-TAE684 + Dasatinib; first compound 0.2 µM)?
**A.** 0.402

**Q.** What about the relative viability (NVP-TAE684 + Dasatinib; first compound 0.6325 µM) of the same cell line?
**A.** 0.321

**Q.** And the relative viability (NVP-TAE684 + Dasatinib; first compound 2 µM)?
**A.** 0.328

**Q.** NCI-H1915 was tested. Which relative viability ([1]; first compound 0.005 µM) did it give?
**A.** 1.08

**Q.** What about the relative viability ([1]; first compound 0.01581 µM) of the same cell line?
**A.** 1.09

**Q.** And the relative viability ([1]; first compound 0.05 µM)?
**A.** 1.09

**Q.** What about the relative viability ([1]; first compound 0.1581 µM) of the same cell line?
**A.** 1.18

**Q.** What about the relative viability ([1]; first compound 0.5 µM) of the same cell line?
**A.** 1.13

**Q.** What about the relative viability ([2]; first compound 0.01581 µM) of the same cell line?
**A.** 0.679

**Q.** What about the relative viability ([2]; first compound 0.05 µM) of the same cell line?
**A.** 0.698

**Q.** What about the relative viability ([2]; first compound 0.1581 µM) of the same cell line?
**A.** 0.693

**Q.** What about the relative viability ([2]; first compound 0.5 µM) of the same cell line?
**A.** 0.699

**Q.** And the relative viability (Vandetanib + Alpelisib; first compound 0.02 µM)?
**A.** 0.964

**Q.** And the relative viability (Vandetanib + Alpelisib; first compound 0.06325 µM)?
**A.** 1.05

**Q.** And the relative viability (Vandetanib + Alpelisib; first compound 0.2 µM)?
**A.** 1.04

**Q.** And the relative viability (Vandetanib + Alpelisib; first compound 0.6325 µM)?
**A.** 1.08

**Q.** What about the relative viability (Vandetanib + Alpelisib; first compound 2 µM) of the same cell line?
**A.** 1.05

**Q.** What about the relative viability (NVP-TAE684 + Dasatinib; first compound 0.2 µM) of the same cell line?
**A.** 0.363

**Q.** What about the relative viability (NVP-TAE684 + Dasatinib; first compound 0.6325 µM) of the same cell line?
**A.** 0.294

**Q.** And the relative viability (NVP-TAE684 + Dasatinib; first compound 2 µM)?
**A.** 0.255
